In ChEMBL document CHEMBL3879915, “Methods of inhibiting PRMT5” (2014):

Assays:
[1] = molecular target: Protein arginine N-methyltransferase 5 (Homo sapiens, UniProt O14744); assay: Inhibition of PRMT5 in human Z138 cells assessed as decrease in di-methyl arginine levels after 96 hrs by Western blot method; assay type: cell-based
[2] = Antiproliferative activity against human Z138 cells assessed as inhibition of cell viability after 5 days by Cell-Titer Glo assay; assay type: functional, cell-based; conditions: Z-138, 120 h
[3] = molecular target: PRMT5/MEP50 complex (Homo sapiens, UniProt O14744); assay: Inhibition of recombinant human fetal brain FLAG-tagged PRMT5/full length human testis 6His-tagged MEP50 expressed in baculovirus infected insect Sf9 cells using human histone H4 (1 to 15 residues) as substrate preincubated for 30 mins followed by [3H]-SAM addition
Chain of PRMT5/MEP50 complex (O14744 whole entry, the tested form may be a part): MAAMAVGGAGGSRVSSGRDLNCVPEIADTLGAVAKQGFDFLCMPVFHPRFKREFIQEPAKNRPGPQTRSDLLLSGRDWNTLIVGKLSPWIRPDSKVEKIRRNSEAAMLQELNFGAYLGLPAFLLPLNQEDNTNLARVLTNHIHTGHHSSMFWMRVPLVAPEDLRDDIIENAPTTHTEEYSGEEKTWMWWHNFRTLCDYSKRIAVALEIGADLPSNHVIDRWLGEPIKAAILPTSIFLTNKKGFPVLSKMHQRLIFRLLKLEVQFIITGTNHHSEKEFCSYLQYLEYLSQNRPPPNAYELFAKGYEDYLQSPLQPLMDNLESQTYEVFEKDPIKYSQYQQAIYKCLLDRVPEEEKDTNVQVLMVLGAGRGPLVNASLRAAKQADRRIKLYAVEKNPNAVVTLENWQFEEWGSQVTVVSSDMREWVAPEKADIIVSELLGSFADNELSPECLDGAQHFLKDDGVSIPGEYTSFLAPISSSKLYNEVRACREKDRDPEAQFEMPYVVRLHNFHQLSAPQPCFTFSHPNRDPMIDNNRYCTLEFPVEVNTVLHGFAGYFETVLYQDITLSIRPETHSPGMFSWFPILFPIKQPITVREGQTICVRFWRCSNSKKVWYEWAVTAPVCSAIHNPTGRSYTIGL
Chain of PRMT5/MEP50 complex (Q9BQA1 whole entry, further chain, the tested form may be a part): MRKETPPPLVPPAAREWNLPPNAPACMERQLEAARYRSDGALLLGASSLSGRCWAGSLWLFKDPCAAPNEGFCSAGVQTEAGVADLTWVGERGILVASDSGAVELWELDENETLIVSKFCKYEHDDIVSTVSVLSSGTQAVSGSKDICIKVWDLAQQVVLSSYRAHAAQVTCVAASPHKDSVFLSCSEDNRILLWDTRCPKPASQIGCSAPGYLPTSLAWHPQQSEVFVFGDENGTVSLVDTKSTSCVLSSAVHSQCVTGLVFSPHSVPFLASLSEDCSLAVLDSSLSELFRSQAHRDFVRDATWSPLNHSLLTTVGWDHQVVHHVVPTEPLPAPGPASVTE

Chain of Protein arginine N-methyltransferase 5 (O14744 whole entry): as the sequence (O14744 whole entry, the tested form may be a part) above

| SMILES | EC50 [1] [nM] | IC50 [3] [nM] | EC50 [2] [µM] |
| --- | --- | --- | --- |
| NC(=O)c1ccc(-c2cccc(OCC(O)CN3CCc4ccccc4C3)c2)cc1 (stereo unspecified) | 1000 to 10000 | 101 to 1000 | > 20 |
| N#Cc1ccccc1-c1cccc(OCC(O)CN2CCc3ccccc3C2)c1 (stereo unspecified) | 1000 to 10000 | 101 to 1000 | 10 to 40 |
| Cn1ccc(C(=O)Nc2cccc(OCC(O)CN3CCc4ccccc4C3)c2)n1 (stereo unspecified) | 1000 to 10000 | 1000 to 10000 | > 20 |
| COc1ccc(Cl)cc1-c1cccc(OCC(O)CN2CCc3ccccc3C2)c1 (stereo unspecified) | 1000 to 10000 | 101 to 1000 | > 20 |
| Cn1ccc2ccc(-c3cccc(OCC(O)CN4CCc5ccccc5C4)c3)cc21 (stereo unspecified) | 1000 to 10000 | 101 to 1000 | 10 to 40 |
| CN(C)c1ncc(-c2cccc(OCC(O)CN3CCc4ccccc4C3)c2)cn1 (stereo unspecified) | 1000 to 10000 | 101 to 1000 | 10 to 40 |
| Cc1ccncc1-c1cccc(OCC(O)CN2CCc3ccccc3C2)c1 (stereo unspecified) | 101 to 1000 | 101 to 10000 | 10 to 40 |
| OC(COc1cccc(-c2cnc3ccccc3c2)c1)CN1CCc2ccccc2C1 (stereo unspecified) | 1000 to 10000 | 101 to 1000 | 10 to 40 |
| OC(COc1cccc(-c2ccc3cnoc3c2)c1)CN1CCc2ccccc2C1 (stereo unspecified) | 10000 to 40000 | 1000 to 10000 | > 20 |
| COc1ccc(-c2cccc(OCC(O)CN3CCc4ccccc4C3)c2)c(Cl)c1 (stereo unspecified) | 1000 to 10000 | 101 to 1000 | 10 to 40 |
| OC(COc1cccc(-c2cccc3c2oc2ccccc23)c1)CN1CCc2ccccc2C1 (stereo unspecified) | 1000 to 10000 | 101 to 1000 | 10 to 40 |
| O=C(Nc1cccc(OCC(O)CN2CCc3ccccc3C2)c1)c1cnccn1 (stereo unspecified) | 1000 to 10000 | 101 to 1000 | > 20 |
| CS(=O)(=O)c1ccc(-c2cccc(OCC(O)CN3CCc4ccccc4C3)c2)cc1 (stereo unspecified) | 1000 to 10000 | 101 to 1000 | 10 to 40 |
| CC(C)(C)OCc1cccc(-c2cccc(OCC(O)CN3CCc4ccccc4C3)c2)c1 (stereo unspecified) | 1000 to 10000 | 101 to 1000 | > 20 |
| COc1ccc(Cn2cnc3ccc(-c4cccc(OCC(O)CN5CCc6ccccc6C5)c4)cc32)cc1 (stereo unspecified) | 1000 to 10000 | 101 to 1000 | 10 to 40 |
| OC(COc1cccc(-c2ccccc2C(F)(F)F)c1)CN1CCc2ccccc2C1 (stereo unspecified) | 1000 to 10000 | 101 to 1000 | > 20 |
| Cn1cnc2ccc(-c3ccnc(NCC(O)CN4CCc5ccccc5C4)n3)cc21 (stereo unspecified) | 101 to 1000 | 101 to 1000 | 1 to 10 |
| Cn1nccc1C(=O)Nc1cccc(OCC(O)CN2CCc3ccccc3C2)c1 (stereo unspecified) | 1000 to 10000 | 1000 to 10000 | > 20 |
| Cn1cnc2ccc(-c3cccc(NCC(O)CN4CCc5ccccc5C4)c3)cc21 (stereo unspecified) | 101 to 1000 | < 100 | 1 to 10 |
| OC(COc1cccc(-c2ccc3ncn(C4CCOCC4)c3c2)c1)CN1CCc2ccccc2C1 (stereo unspecified) | 101 to 1000 | 101 to 1000 | 1 to 10 |
| COc1ccc(-c2cccc(OCC(O)CN3CCc4ccccc4C3)c2)cc1 (stereo unspecified) | 1000 to 10000 | 101 to 1000 | 10 to 40 |
| OC(COc1cccc(-c2ccc3[nH]ncc3c2)c1)CN1CCc2ccccc2C1 (stereo unspecified) | 1000 to 10000 | 101 to 1000 | > 20 |
| COc1ccc(-c2cccc(OCC(O)CN3CCc4ccccc4C3)c2)c(C)c1 (stereo unspecified) | 1000 to 10000 | 101 to 1000 | 10 to 40 |
| COc1cccc(-c2cccc(OCC(O)CN3CCc4ccccc4C3)c2)c1 (stereo unspecified) | 1000 to 10000 | 101 to 1000 | 10 to 40 |
| OC(COc1cccc(-c2ccc3c(c2)OCO3)c1)CN1CCc2ccccc2C1 (stereo unspecified) | 10000 to 40000 | 101 to 1000 | 10 to 40 |
| O=C1NCc2ccc(-c3cccc(OCC(O)CN4CCc5ccccc5C4)c3)cc21 (stereo unspecified) | 1000 to 10000 | 101 to 1000 | 10 to 40 |
| CN(CC(O)CN1CCc2ccccc2C1)c1cccc(CNC2CCCC2)c1 (stereo unspecified) | 101 to 1000 | 101 to 1000 | 10 to 40 |
| OC(COc1cccc(-c2ccccc2Oc2ccccc2)c1)CN1CCc2ccccc2C1 (stereo unspecified) | 1000 to 10000 | 101 to 1000 | > 20 |

The next lines start with results.

| EC50 [1] [nM] | IC50 [3] [nM] | SMILES | EC50 [2] [µM] |
| --- | --- | --- | --- |
| 1000 to 10000 | 101 to 1000 | CS(=O)(=O)c1cccc(-c2cccc(OCC(O)CN3CCc4ccccc4C3)c2)c1 (stereo unspecified) | > 20 |
| 1000 to 10000 | 101 to 1000 | OC(COc1cccc(-c2cc(C(F)(F)F)ccc2Cl)c1)CN1CCc2ccccc2C1 (stereo unspecified) | 10 to 40 |
| 1000 to 10000 | 101 to 1000 | Cc1ccc(F)c(-c2cccc(OCC(O)CN3CCc4ccccc4C3)c2)c1 (stereo unspecified) | > 20 |
| 1000 to 10000 | < 100 | CN(CC(O)CN1CCc2ccccc2C1)c1cccc(CNC2CCOCC2)c1 (stereo unspecified) | > 20 |
| 101 to 1000 | 101 to 1000 | Cn1cnc2cc(-c3cccc(OCC(O)CN4CCc5ccccc5C4)c3)ccc21 (stereo unspecified) | 10 to 40 |
| 1000 to 10000 | 101 to 1000 | OC(COc1cccc(-c2cccnc2F)c1)CN1CCc2ccccc2C1 (stereo unspecified) | > 20 |
| 1000 to 10000 | 101 to 1000 | OC(COc1cccc(-c2ccccc2Cl)c1)CN1CCc2ccccc2C1 (stereo unspecified) | 10 to 40 |
| 1000 to 10000 | 1000 to 10000 | O=C(Nc1cccc(OCC(O)CN2CCc3ccccc3C2)c1)c1cncnc1 (stereo unspecified) | > 20 |
| > 20000 | 101 to 1000 | COC(=O)c1cccc(-c2cccc(OCC(O)CN3CCc4ccccc4C3)c2)c1 (stereo unspecified) | > 20 |
| 10000 to 40000 | 101 to 1000 | OC(COc1cccc(-c2ccc(C(F)(F)F)cc2C(F)(F)F)c1)CN1CCc2ccccc2C1 (stereo unspecified) | > 20 |
| > 20000 | 101 to 1000 | CC1c2ccccc2CCN1CC(O)COc1cccc(-c2ccc3ncn(C)c3c2)c1 (stereo unspecified) | 1 to 10 |
| 1000 to 10000 | 101 to 1000 | CN1CCN(c2ccc(-c3cccc(OCC(O)CN4CCc5ccccc5C4)c3)cn2)CC1 (stereo unspecified) | 1 to 10 |
| 101 to 1000 | 101 to 1000 | CC(C)n1cnc2ccc(-c3cccc(OCC(O)CN4CCc5ccccc5C4)c3)cc21 (stereo unspecified) | 10 to 40 |
| 1000 to 10000 | 101 to 1000 | Cn1cnc2ccc(-c3cccc(NCC(O)CN4CCc5ccccc5C4)n3)cc21 (stereo unspecified) | > 20 |
| 1000 to 10000 | 101 to 1000 | O=C1COc2ccc(-c3cccc(OCC(O)CN4CCc5ccccc5C4)c3)cc2N1 (stereo unspecified) | 10 to 40 |
| 1000 to 10000 | 101 to 1000 | OC(COc1cccc(-c2ccc3ncn(-c4ccccc4)c3c2)c1)CN1CCc2ccccc2C1 (stereo unspecified) | > 20 |
| 101 to 1000 | < 100 | Cn1cnc2ccc(-c3ccnc(NCC(O)CN4CCc5ccccc5C4)c3)cc21 (stereo unspecified) | 1 to 10 |
| 101 to 1000 | 101 to 1000 | Cn1cnc2ccc(-c3cncc(NCC(O)CN4CCc5ccccc5C4)n3)cc21 (stereo unspecified) | > 20 |
| 1000 to 10000 | < 100 | OC(COc1cccc(-c2ccc3ncn(Cc4ccccc4)c3c2)c1)CN1CCc2ccccc2C1 (stereo unspecified) | 10 to 40 |
| 1000 to 10000 | 101 to 1000 | OC(COc1cccc(-c2ccc3nn[nH]c3c2)c1)CN1CCc2ccccc2C1 (stereo unspecified) | 1 to 10 |

| EC50 [1] [nM] | IC50 [3] [nM] | SMILES | EC50 [2] [µM] |
| --- | --- | --- | --- |
| 101 to 20000 | 101 to 1000 | O=c1[nH]c2ccc(-c3cccc(OCC(O)CN4CCc5ccccc5C4)c3)cc2[nH]1 (stereo unspecified) | 10 to 20 |
| 1000 to 10000 | 101 to 1000 | CC(=O)c1cccc(-c2cccc(OCC(O)CN3CCc4ccccc4C3)c2)c1 (stereo unspecified) | 10 to 40 |
| 1000 to 10000 | < 100 | Cn1ncc2cc(-c3cccc(OCC(O)CN4CCc5ccccc5C4)c3)ccc21 (stereo unspecified) | 10 to 40 |
| 1000 to 10000 | 101 to 1000 | CN(C)c1ccc(-c2cccc(OCC(O)CN3CCc4ccccc4C3)c2)cc1 (stereo unspecified) | > 20 |
| 1000 to 10000 | 101 to 1000 | Oc1cccc(-c2cccc(OCC(O)CN3CCc4ccccc4C3)c2)c1 (stereo unspecified) | 10 to 40 |
| 1000 to 10000 | 101 to 1000 | CS(=O)(=O)Nc1ccc(-c2cccc(OCC(O)CN3CCc4ccccc4C3)c2)cc1 (stereo unspecified) | 10 to 40 |
| 1000 to 10000 | 101 to 1000 | N#Cc1ccc(-c2cccc(OCC(O)CN3CCc4ccccc4C3)c2)cc1 (stereo unspecified) | 10 to 40 |
| 1000 to 10000 | 101 to 1000 | O=C(c1cccc(-c2cccc(OCC(O)CN3CCc4ccccc4C3)c2)c1)N1CCOCC1 (stereo unspecified) | > 20 |
| 10000 to 40000 | 101 to 1000 | OC(COc1cccc(-c2ccc(C(F)(F)F)cc2Cl)c1)CN1CCc2ccccc2C1 (stereo unspecified) | > 20 |
| 1000 to 10000 | 101 to 1000 | OC(COc1cccc(-c2ccc3nc[nH]c3c2)c1)CN1CCc2ccccc2C1 (stereo unspecified) | 10 to 40 |
| 101 to 1000 | < 100 | Cn1ccc2cnc(-c3cccc(OCC(O)CN4CCc5ccccc5C4)c3)nc21 (stereo unspecified) | > 20 |
| 1000 to 10000 | 101 to 1000 | Cn1ncc2ccc(-c3cc(COCC(O)CN4CCc5ccccc5C4)on3)cc21 (stereo unspecified) | > 20 |
| 1000 to 10000 | 101 to 1000 | OC(COc1cccc(-c2ccc3c(c2)OCCO3)c1)CN1CCc2ccccc2C1 (stereo unspecified) | 10 to 40 |
| 1000 to 10000 | 101 to 1000 | OC(COc1cccc(-c2ccc3cn[nH]c3c2)c1)CN1CCc2ccccc2C1 (stereo unspecified) | 10 to 40 |
| 1000 to 10000 | 101 to 1000 | OCc1cccc(-c2cccc(OCC(O)CN3CCc4ccccc4C3)c2)c1 (stereo unspecified) | 10 to 40 |
| 101 to 1000 | < 100 | OC(COc1cccc(-c2cccc3cccnc23)c1)CN1CCc2ccccc2C1 (stereo unspecified) | 10 to 40 |
| 1000 to 10000 | 101 to 1000 | CC(=O)c1ccc(-c2cccc(OCC(O)CN3CCc4ccccc4C3)c2)cc1 (stereo unspecified) | > 20 |
| 10000 to 40000 | 101 to 1000 | OC(COc1cccc(-c2cccc(F)c2F)c1)CN1CCc2ccccc2C1 (stereo unspecified) | 10 to 40 |
| 1000 to 10000 | 101 to 1000 | CS(=O)(=O)c1ccccc1-c1cccc(OCC(O)CN2CCc3ccccc3C2)c1 (stereo unspecified) | > 20 |
